The text below walks through data of patent US20250032476A1, “ALPHA-2A ADRENERGIC RECEPTOR MODULATORS AND USES THEREOF” (The Regents of the University of California, priority 2021, published 2025).

In data set [1] the target is T1, human α2AAR (Homo sapiens (Human), UniProt P08913). In words: Radioligand competition binding to human α2AAR (HEK293T membranes, [3H]RX82,1002). The settings on record: human α2AAR; mean ± s.e.m.; read-out: Ki for α2AAR. For orientation: Displacement assays read how much labelled ligand stays bound in the presence of the test substance.
T1 sequence (P08913 whole entry): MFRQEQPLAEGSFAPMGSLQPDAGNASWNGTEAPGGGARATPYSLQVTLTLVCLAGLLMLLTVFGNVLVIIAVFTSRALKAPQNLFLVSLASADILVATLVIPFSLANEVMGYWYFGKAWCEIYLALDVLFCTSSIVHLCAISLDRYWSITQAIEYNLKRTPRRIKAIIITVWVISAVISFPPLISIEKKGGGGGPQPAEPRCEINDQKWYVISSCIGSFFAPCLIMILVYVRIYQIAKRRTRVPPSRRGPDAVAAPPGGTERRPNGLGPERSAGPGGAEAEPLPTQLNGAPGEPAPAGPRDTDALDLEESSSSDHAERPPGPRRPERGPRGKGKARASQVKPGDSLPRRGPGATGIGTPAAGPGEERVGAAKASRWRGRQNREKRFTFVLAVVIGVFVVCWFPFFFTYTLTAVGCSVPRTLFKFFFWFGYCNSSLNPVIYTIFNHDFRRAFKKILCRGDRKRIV
The subject of a further data set is SNI mice. In words: Spared-nerve injury (SNI) model of neuropathic pain, von Frey mechanical thresholds. Type of data set: in vivo. The protocol:
Spared-nerve injury (SNI) model of neuropathic pain. Under isoflurane anesthesia, two of the three branches of the sciatic nerve were ligated and transected distally, leaving the sural nerve intact. Behavior was tested 7 to 14 days after injury and in situ hybridization was performed one week post-injury.

Data set [2] has as its target T2, ALPHA-2A ADRENERGIC RECEPTOR (Homo sapiens (Human), UniProt P08913). Kind of data set: Arrestin recruitment. The settings on record: Tables 7-9. The class given is cell-based. (Arrestin recruitment assays detect the binding of arrestin to an activated receptor.)
Data set [3] concerns imidazoline-2 receptor (I2R). In words: I2R binding (Eurofins Cerep). The note with it: tested at 500 nM.
For another data set, the system named is CFA mice. Kind of data set: Complete Freund's Adjuvant (CFA) inflammatory pain model, Hargreaves test. The note with it: mouse, in vivo.
For data set [4], the target named is T1, human α2AAR. In words: β-arrestin-2 recruitment, BRET biosensor assay in HEK293T cells.
Data set [5] is described as follows: Pharmacokinetics in mice (plasma, brain, CSF). Type of data set: in vivo. Here is the method:
Pharmacokinetics. Pharmacokinetic experiments were performed by Bienta (Enamine Biology Services) in accordance with Enamine pharmacokinetic study protocols and Institutional Animal Care and Use Guidelines (protocol number 1-2/2020). […] In each compound study, nine time points (5, 15, 30, 60, 120, 240, 360, 480 and 1440 min) were collected, each of the time point treatment group included 3 animals. There was also a control group of one animal. In the ‘9087, ‘7075, ‘4622 studies, male C57BL/6N mice were used, for PS75 CD-1 mice, and for ‘2998 male Balb/cAnN mice. For all compound studies the animals were randomly assigned to the treatment groups before the pharmacokinetic study; all animals were fasted for 4 h before dosing. For injections, ‘9087 was dissolved in Captisol—water (40%:60%, w/v), ‘4622 was dissolved in a 20% Kolliphor HS—physiological saline solution, and ‘7075, PS75, and ‘2998 were dissolved in a 20% 2-HPBCD—aqueous solution. The batches of working formulations were prepared 10 minutes prior to the in vivo study.
Mice were injected i.p. with 2,2,2-tribromoethanol at 150 mg/kg prior to drawing CSF and blood. CSF was collected under a stereomicroscope from cisterna magna using 1 mL syringes. Blood collection was performed from the orbital sinus in microtainers containing K3EDTA. Animals were sacrificed by cervical dislocation after the blood samples collection. Blood samples were centrifuged 10 min at 3000 rpm. Brain samples (right lobe) were weighed and transferred into 1.5 ml tubes. All samples were immediately processed, flash-frozen and stored at −70° C. until subsequent analysis.
Plasma samples (40 μL) were mixed with 200 μL of internal standard (IS) solution. After mixing by pipetting and centrifuging for 4 min at 6000 rpm, 4 μL of each supernatant was injected into the LC-MS/MS system. Solutions of internal standards were used to quantify compounds in the plasma samples. […] After this, the samples were centrifuged for 4 min at 14,000 rpm, and supernatant was injected into LC-MS/MS system. CSF samples (2 μL) were mixed with 40 μL of an internal stock solution. After mixing by pipetting and centrifuging for 4 min at 6,000 rpm, 5 μL of each supernatant was injected into LC-MS/MS system.
(§1) Analyses of plasma, brain and CSF samples were conducted at Enamine/Bienta. The concentrations of compounds in plasma and brain samples were determined using high performance liquid chromatography/tandem mass spectrometry (HPLC-MS/MS). Data acquisition and system control was performed using Analyst 1.5.2 software (AB Sciex, Canada). […] Pharmacokinetic data analysis was performed using noncompartmental, bolus injection or extravascular input analysis models in WinNonlin 5.2 (PharSight).
Mice were injected i.p. with 2,2,2-tribromoethanol at 150 mg/kg prior to drawing CSF and blood. CSF was collected under a stereomicroscope from cisterna magna using 1 mL syringes. Blood collection was performed from the orbital sinus in microtainers containing K3EDTA. Animals were sacrificed by cervical dislocation after the blood samples collection. Blood samples were centrifuged 10 min at 3000 rpm. Brain samples (right lobe) were weighed and transferred into 1.5 mL tubes. All samples were immediately processed, flash-frozen and stored at −70° C. until subsequent analysis.
as §1
Additional pharmacokinetic experiments were performed by Sai Life Sciences (Hyderabad, India) in accordance with the Sai Study Protocol SAIDMPK/PK-22-04-0340. […] Testing was done in C57BL/6 mice.

In data set [6] the target is T1, human α2AAR. In words: Gαi G protein activation, BRET biosensor assay in HEK293T cells. A general note: BRET reads energy transfer from a luciferase to a nearby fluorophore.
Data set [7] addresses T2, ALPHA-2A ADRENERGIC RECEPTOR
Kind of data set: Gi recruitment (G protein). Type of data set: cell-based. The note with it: Gi recruitment, Tables 7-9.

A further data set deals with α2AAR-Y431^7.43A/F (Homo sapiens, UniProt P08913, Y431A). In words: Gi activation (BRET) at α2AAR Y431^7.43 mutants. Type of data set: cell-based. The protocol: Investigating the sensitivity of selected ligands to the receptor mutants α2AAR-D128^3.32A, α2AAR-D128^3.32T, α2AAR-D128^3.32L, α2AAR-S215^5.42A, α2AAR-Y409^6.55A, α2AAR-Y409^6.55T, α2AAR-Y409^6.55F, α2AAR-F427^7.39F, α2AAR-Y431^7.43A, and α2AAR-Y431^7.43F was determined by monitored G protein stimulation as described above transfecting the appropriate receptor together with Gαi1-RLucII and Gβ1/Gγ1-GFP10. […] Three to ten experiments were done in duplicate.
The sensitivity of selected ligands to the receptor mutants α2AAR-D128^3.32A, α2AAR-D128^3.32T, α2AAR-D128^3.32L, α2AAR-S215^5.42A, α2AAR-Y409^6.55A, α2AAR-Y409^6.55T, α2AAR-Y409^6.55F, α2AAR-F427^7.39F, α2AAR-Y431^7.43A, and α2AAR-Y431^7.43F was monitored by G protein activation as described above transfecting the appropriate receptor together with Gαi1-RLucII and Gβ1/Gγ2-GFP10. […] Similarly, the effect of the α2AAR-D128^3.32A, α2AAR-S215^5.42A, α2AAR-Y409^6.55A, α2AAR-Y409^6.55F, α2AAR-F427^7.39F, α2AAR-Y431^7.43A, and α2AAR-Y431^7.43F mutations on arrestin recruitment was evaluated as described above transfecting the appropriate receptor together with CAAX-rGFP, GRK2 and β-arrestin-2-RLucII. Data was analyzed as ligand induced changes in BRET compared to vehicle (deltaBRET). Three to seven experiments were done in duplicate.

The nature of data set [8]: Body weight measurement over 48 hours. The class given is in vivo, mice. The settings on record: ‘9087 5, 10 or 20 mg/kg; dexmedetomidine 30 μg/kg.
The subject of data set [9] is mice. In words: Rotarod motor test (motor impairment and sedation). The class given is in vivo. The note with it: 60 μg/kg.
Data set [10] deals with mice. Kind of data set: Constipation assay (fecal pellets over 6 hours). The settings on record: i.p.; morphine 10 mg/kg, dexmedetomidine 30 μg/kg, ‘9087 5 mg/kg; versus vehicle.
[11] abbreviates: mouse, plasma, ip, I.P. 10 mg/kg.

Entries after “also recorded” stand apart in the source; their conditions may differ. Where two headings read alike, the source gives them in different places.

T2 sequence (P08913 whole entry): as above

For orientation: Ki means a measure of affinity in units of concentration, obtained from inhibition or displacement. One may read the Emax as the size of the effect at its maximum, as opposed to the concentration needed. For orientation: EC50 means the concentration giving half of the maximal effect. As usually defined, the AUC is the area under the concentration-time curve, a measure of exposure. The Cmax is the maximum level reached in the sampled fluid or tissue. `Cc1cc2[nH]ncc2cc1-c1ccc(N)nc1` [Compound 2998, 5-(6-Methyl-1H-indazol-5-yl)pyridin-2-amine]: the inhibition constant Ki on human α2AAR [1] was 180 ± 34 nM. Moreover, in the data set with SNI mice (atipamezole 2 mg/kg, 15 minutes prior), the “Effect of atipamezole on the agonist's effect in SNI mice” value was “not significant reversal; also recorded: partially reversed”. In addition, in the data set on SNI mice (systemic injection), the “Mechanical thresholds / anti-allodynic effect in SNI mice” value is listed as “exhibited anti-allodynic effects”. Moreover, the Emax in data set [2] is less than 10%; on human α2AAR [4] (HEK-293T, read-out: β-arrestin-2 Emax) it was 8 ± 3%; at human α2AAR [6] (HEK-293T, read-out: Gαi Emax), 61 ± 3%; in data set [7] (read-out: G protein Emax (%)) it was 60%. In data set [3], the “I2R binding, single point radioligand experiment” value is reported as “no binding was seen”. In addition, the “Thermal latencies / anti-hyperalgesic effect in CFA model” value with CFA mice was “did not”. Moreover, the EC50 at human α2AAR [4] came to 98 ± 32 nM; at human α2AAR [6] (Gαi EC50, BRET biosensor, HEK293T, human α2AAR) it was 73 ± 14 nM; in [7] (read-out: G protein EC50), 89 nM. Further, in [5] (I.P. 10 mg/kg), the “AUC Brain” value was 51700 ng·min/mL. In addition, in data set [5] (I.P. 10 mg/kg), the “Cmax Brain” value turned out to be 742 ng/mL. In addition, the half-life is 27.6 min in data set [5] (mouse, brain, ip, I.P. 10 mg/kg, read-out: T ½ Brain (converted)) and 24 min in data set [5] (mouse, plasma, ip, I.P. 10 mg/kg, read-out: T ½ Plasma (converted)). The AUC in data set [5] (setting [11]) was 3070 ng·h/mL. In data set [5] (setting [11]), this compound displayed a Cmax of 2710 ng/mL.

Take `Cc1cccc([C@H](C)c2cnc[nH]2)c1C` [dexmedetomidine]: the “Gi signaling at Y431^7.43A” value at α2AAR-Y431^7.43A/F is on record as “essentially eliminated”. The “Effect on body weight over 48 hours” value in data set [8] was “no effect on body weight”. In addition, in data set [5] (I.P. 30 μg/kg), the “AUC Brain” value stood at 285 ng·min/mL and the “Cmax Brain” value turned out to be 8 ng/mL. In addition, the “Sedation in rotarod test” value in the data set with mice [9] is listed as “completely sedating; also recorded: complete sedation”.

As to `CN1CC[C@]23c4c5ccc(O)c4O[C@H]2[C@@H](O)C=C[C@H]3[C@H]1C5` [morphine], the Constipation result in the data set on mice [10] is recorded as “induced constipation”.
